{"source": "patent US11198710B2", "about": "“Transgenic plant having herbicide resistance” (priority 2016, dated 2021)", "key": {"[1]": {"system": "wild-type rapeseed plants (variety: Westar)", "assay": "Rapeseed sensitivity test 1 (post-sowing/pre-emergence soil treatment), wild type", "assay_type": "in vivo, Brassica napus", "protocol": "Wild-type rapeseed plants (variety: Westar) and transgenic rapeseed plants comprising the wheat GST gene introduced therein were subjected to Rapeseed sensitivity test 1 in plastic pots (length: 8 cm; width: 8 cm; height: 6 cm). The test was carried out in Fujino soil (sandy loam soil), and 4 seeds of wild-type rapeseed and 8 seeds of transgenic rapeseed were sown in each pot (sowing depth: 1 cm). Water dispersible granules containing 50% pyroxasulfone were applied at 5 different doses of 1, 4, 16, 63, and 250 g a.i./ha (n=3). Immediately after pyroxasulfone treatment, about 1 mm of rain was fallen with the use of artificial rainfall device, and water was supplied from the bottom of the pots. Thereafter, water was supplied from the bottom of the pot when the soil surface was dried in the pot, according to need.\nThe difference in the sensitivity of rapeseed to pyroxasulfone applied pre-emergence was examined (temperature: 22° C., fluorescent light), and whether or not the transgenic rapeseed plant comprising wheat GST had pyroxasulfone resistance was evaluated in terms of the plant height, the herbicidal symptoms, and the cotyledon growth. Specifically, heights of the plants were measured 2 weeks after seeds sowing of rapeseed and pyroxasulfone application, and the inhibition was assessed by comparison to control plants grown in the absence of pyroxauslfone (n=4 to 12). In FIGS. 37 to 39, “TaGST” stands for a transgenic rapeseed plant comprising the TaQ8GTC0 gene. Values in the table in FIG. 38 are expressed as the mean±standard deviation (n=4 to 12)."}, "[2]": {"system": "rice plants comprising the TaQ8GTC0 gene introduced therein", "assay": "Herbicide resistance test of rice plants comprising the TaQ8GTC0 gene, gellan gum medium, plant height", "assay_type": "in vivo", "settings": "for IC50: Oryza sativa, read-out: I50", "protocol": "Hoagland's mix and 3 g of gellan gum were suspended in 1 liter of distilled water and thoroughly dissolved therein by heating in a microwave. A fraction of the resultant (15 ml) was injected into a tubular bottle before it was cooled (30 ml was injected into the plate). The herbicide was simultaneously added at the time of injection of the gellan gum medium into the tubular bottle or plate, followed by thorough mixing. Rice hulls were soaked in a 50-fold diluted sodium hypochlorite solution (antiformin) (Wako) for approximately 20 minutes and then thoroughly washed with water. Sterilized seeds were soaked in distilled water and allowed to stand at 27° C. for germination (for approximately 2 days). Germinating seeds were softly planted in the gellan gum medium (plate) containing 0.25 μM BS. These samples, together with a beaker filled with distilled water, were placed in a transparent case, which was then covered with a clear plastic wrap. These samples were grown at 27° C. under fluorescent light illumination (14 hours of a light period and 10 hours of a dark period) for 2 days. Thereafter, rice seeds that were determined to have BS resistance with the use of root elongation as the indicator were transferred to gellan gum media containing pyroxasulfone (tubal bottles) at the final concentrations of 10^−8, 10^−7, 10^−6, and 10^−5M, respectively. Subsequently, these samples, together with a beaker filled with distilled water, were placed in a transparent case, which was then covered with a clear plastic wrap. These samples were grown at 27° C. under fluorescent light illumination (14 hours of a light period and 10 hours of a dark period) for 4 to 5 days, and the plant heights were then measured. Inhibition of shoot growth was determined by comparison to control plants grown in the absence of pyroxasulfone and the concentration for required 50% inhibition (IC50) was determined by the Probit method.\nResistance of rice plants comprising the TaQ8GTC0 gene introduced therein to VLCFAE-inhibiting herbicides was tested in the same manner as with the pyroxasulfone resistance test described above.\nFIGS. 7-1 to 7-6 show the results. In FIGS. 7-1 to 7-6, the concentration of 0 μM, the minimal concentration shown in Table 4 (×1), the concentration 4 times higher than the minimal concentration shown in Table 4 (×4), and the concentration 16 times higher than the minimal concentration shown in Table 4 (×16) are shown successively from left to right."}, "[3]": {"system": "wild-type Arabidopsis thaliana plant (Columbia-0)", "assay": "Sensitivity of wild-type Arabidopsis thaliana to herbicides on MS agar medium", "assay_type": "in vivo", "settings": "22° C., 14 days", "protocol": "A medium was prepared as described below, so as to examine the pyroxasulfone resistance of the Arabidopsis thaliana plant comprising the TaQ8GTC0 gene introduced therein. At the outset, the Murashige-Skoog (MS) media (1 bag), thiamin hydrochloride (3 mg), nicotinic acid (5 mg), pyridoxin hydrochloride (0.5 mg), and sucrose (10 g) were added into a 1-liter beaker, a pH was adjusted to 5.7, the volume of the content was adjusted to 1 liter, and 8 g (0.8%) of agar was added. The resultant was autoclaved and cooled to room temperature, and pyroxasulfone (an acetone solution) was added thereto. A 30-ml fraction thereof was fractionated into a No. 2 square plate to prepare an MS medium containing pyroxasulfone at a given concentration.\nPyroxasulfone sensitivity of transgenic Arabidopsis thaliana plants was tested with the use of the medium prepared above as described below. A necessary amount of Arabidopsis thaliana dry seeds was agitated in 70% ethanol for 2 minutes and in hypochlorous acid containing 0.02% Triton-X-100 for 15 minutes, followed by washing with sterile water 10 times. Subsequently, the seeds were suspended in 1 ml of the autoclaved 0.1% agar solution, the suspension was thoroughly mixed to prepare a homogeneous solution, and a total of 30 seeds were each placed on the medium surface. […]"}}, "note": "Read-outs that look alike come from different tables or passages of the source.", "data": [{"molecule": "Cn1nc(C(F)(F)F)c(CS(=O)(=O)C2=NOC(C)(C)C2)c1OC(F)F", "note": "[Pyroxasulfone, 3-[5-(difluoromethoxy)-1-methyl-3-(trifluoromethyl)pyrazol-4-ylmethylsulfonyl]-4,5-dihydro-5,5-dimethyl-1,2-oxazole]", "values": [{"measurement": "inhibition at 16 g/ha", "setting": "[1]; Brassica napus, 336 h, 16 g a.i./ha, 2 weeks after sowing and application, 22° C., read-out: shoot growth inhibition (plant height)", "value": 61.9, "unit": "%"}, {"measurement": "dose at which cotyledon growth was substantially completely inhibited", "setting": "[1]; pre-emergence soil treatment", "value": "≥ 16", "unit": "g a.i./ha"}, {"measurement": "dose at which cotyledons became dark green (herbicidal symptoms)", "setting": "[1]; pre-emergence soil treatment", "value": "≥ 16", "unit": "g a.i./ha"}, {"measurement": "pyroxasulfone resistance relative to wild-type plants", "setting": "[2]; 16 lines among 18 lines used in the test", "value": "≥ 10", "unit": "times"}, {"measurement": "IC50", "setting": "[2]; lineage #1-3", "value": 1140, "unit": "nM"}, {"measurement": "IC50", "setting": "[2]; lineage #1-4", "value": 1310, "unit": "nM"}, {"measurement": "IC50", "setting": "[2]; lineage #1-7", "value": 969, "unit": "nM"}, {"measurement": "IC50", "setting": "[2]; lineage #1-10", "value": 510, "unit": "nM"}, {"measurement": "IC50", "setting": "[2]; lineage #2-6", "value": 968, "unit": "nM"}, {"measurement": "IC50", "setting": "[2]; lineage #2-9", "value": 1090, "unit": "nM"}, {"measurement": "IC50", "setting": "[2]; lineage #3-4", "value": 1720, "unit": "nM"}, {"measurement": "IC50", "setting": "[2]; lineage #3-9", "value": 1010, "unit": "nM"}, {"measurement": "IC50", "setting": "[2]; lineage #3-12", "value": 67, "unit": "nM"}, {"measurement": "IC50", "setting": "[2]; lineage #3-13", "value": 13800, "unit": "nM"}, {"measurement": "IC50", "setting": "[2]; lineage #4-1", "value": 496, "unit": "nM"}, {"measurement": "IC50", "setting": "[2]; lineage #4-3", "value": 4320, "unit": "nM"}, {"measurement": "IC50", "setting": "[2]; lineage #4-7", "value": 7150, "unit": "nM"}, {"measurement": "IC50", "setting": "[2]; lineage #4-10", "value": 2120, "unit": "nM"}, {"measurement": "IC50", "setting": "[2]; lineage #4-13", "value": 3850, "unit": "nM"}, {"measurement": "IC50", "setting": "[2]; lineage #4-14", "value": 45, "unit": "nM"}, {"measurement": "IC50", "setting": "[2]; lineage #5-1", "value": 968, "unit": "nM"}, {"measurement": "IC50", "setting": "[2]; lineage #5-11", "value": 983, "unit": "nM"}, {"measurement": "Pyroxasulfone resistance (ratio of IC50 of transformed rice to IC50 of wild-type rice)", "setting": "[2]; lineage #1-3", "value": 29}, {"measurement": "Pyroxasulfone resistance (ratio of IC50 of transformed rice to IC50 of wild-type rice)", "setting": "[2]; lineage #1-4", "value": 33}, {"measurement": "Pyroxasulfone resistance (ratio of IC50 of transformed rice to IC50 of wild-type rice)", "setting": "[2]; lineage #1-7", "value": 25}, {"measurement": "Pyroxasulfone resistance (ratio of IC50 of transformed rice to IC50 of wild-type rice)", "setting": "[2]; lineage #1-10", "value": 13}, {"measurement": "Pyroxasulfone resistance (ratio of IC50 of transformed rice to IC50 of wild-type rice)", "setting": "[2]; lineage #2-6", "value": 25}, {"measurement": "Pyroxasulfone resistance (ratio of IC50 of transformed rice to IC50 of wild-type rice)", "setting": "[2]; lineage #2-9", "value": 28}, {"measurement": "Pyroxasulfone resistance (ratio of IC50 of transformed rice to IC50 of wild-type rice)", "setting": "[2]; lineage #3-4", "value": 44}, {"measurement": "Pyroxasulfone resistance (ratio of IC50 of transformed rice to IC50 of wild-type rice)", "setting": "[2]; lineage #3-9", "value": 26}, {"measurement": "Pyroxasulfone resistance (ratio of IC50 of transformed rice to IC50 of wild-type rice)", "setting": "[2]; lineage #3-12", "value": 2}, {"measurement": "Pyroxasulfone resistance (ratio of IC50 of transformed rice to IC50 of wild-type rice)", "setting": "[2]; lineage #3-13", "value": 353}, {"measurement": "Pyroxasulfone resistance (ratio of IC50 of transformed rice to IC50 of wild-type rice)", "setting": "[2]; lineage #3-13, listed as pyroxasulfone", "value": "approximately 350"}, {"measurement": "growth of rice plants comprising the TaQ8GTC0 gene on herbicide medium", "setting": "[2]; lineage #3-13, minimal concentration (×1), ×4 and ×16 of Table 4", "value": "the growth thereof was not affected at the maximal test concentration"}, {"measurement": "Pyroxasulfone resistance (ratio of IC50 of transformed rice to IC50 of wild-type rice)", "setting": "[2]; lineage #4-1", "value": 13}, {"measurement": "Pyroxasulfone resistance (ratio of IC50 of transformed rice to IC50 of wild-type rice)", "setting": "[2]; lineage #4-3", "value": 111}, {"measurement": "Pyroxasulfone resistance (ratio of IC50 of transformed rice to IC50 of wild-type rice)", "setting": "[2]; lineage #4-7", "value": 183}, {"measurement": "resistance to pyroxasulfone", "setting": "[2]; lineage #4-7, no data disclosed", "value": "high level of resistance"}, {"measurement": "Pyroxasulfone resistance (ratio of IC50 of transformed rice to IC50 of wild-type rice)", "setting": "[2]; lineage #4-10", "value": 54}, {"measurement": "Pyroxasulfone resistance (ratio of IC50 of transformed rice to IC50 of wild-type rice)", "setting": "[2]; lineage #4-13", "value": 99}, {"measurement": "Pyroxasulfone resistance (ratio of IC50 of transformed rice to IC50 of wild-type rice)", "setting": "[2]; lineage #4-14", "value": 1}, {"measurement": "Pyroxasulfone resistance (ratio of IC50 of transformed rice to IC50 of wild-type rice)", "setting": "[2]; lineage #5-1", "value": 25}, {"measurement": "Pyroxasulfone resistance (ratio of IC50 of transformed rice to IC50 of wild-type rice)", "setting": "[2]; lineage #5-11", "value": 25}, {"measurement": "pyroxasulfone concentration at which growth was substantially completely inhibited", "setting": "[3]", "value": "≥ 1", "unit": "µM"}, {"measurement": "growth of the wild-type Arabidopsis thaliana plant", "setting": "[3]; pyroxasulfone 100 nM", "value": "inhibited to some extent"}]}]}
